*1 amine or outer side, *2 acyl side, *3 side chain or, on linkers, in order; H or OH if unused. Where a SMILES comes first, the peptide text is derived from it. Bridges are numbered along the chain shown (N, C = ends). [ ]: non-standard residue; d: D form. ξ: configuration not given here. Trp(1-CH2COOH) = N[C@@H](Cc1cn(CC(=O)O)c2ccccc12)C(=O)O; Phe(3,4,5-F3) = N[C@@H](Cc1cc(F)c(F)c(F)c1)C(=O)O; Phe(3,4-F2) = N[C@@H](Cc1ccc(F)c(F)c1)C(=O)O; X6 = NC(=O)CCC(=O)[C@H](CSCC(=O)[*:2])N[*:1]; Phe(4-F) = N[C@@H](Cc1ccc(F)cc1)C(=O)O; NMeIle(3ξ) = CCC(C)[C@H](NC)C(=O)O; NMeF = CN[C@@H](Cc1ccccc1)C(=O)O; X1 = O=C([C@H]1COCCN1[*:1])[*:2]; dHyp = O=C(O)[C@H]1C[C@H](O)CN1; NMehSer = CN[C@@H](CCO)C(=O)O; NMeNle = CCCC[C@H](NC)C(=O)O; dPip = O=C(O)[C@H]1CCCCN1; Orn = NCCC[C@H](N)C(=O)O; Dab = NCC[C@H](N)C(=O)O
What follows are molecules tested against T1, Human PD-L1/PD-1 (Homo sapiens, UniProt Q9NZQ7) (assay: HTRF Human PD-L1/PD-1 binding assay (PD-1-Ig/PD-L1-His)). Conditions: PD-L1-His 10 nM, PD-1-Ig 20 nM; class symbol; read-out: HTRF Human PD-L1/PD-1 Binding Assay IC50 Range.
T1 construct: TVMV protease cleavage site (C); made in house; host or cells: HEK293T cells
In short: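 Inhibitors were preincubated 15 min with human PD-L1(18-239)-His (10 nM final), then PD-1(25-167)-Ig (20 nM final) was added for 15 min in dPBS/0.1% BSA/0.05% Tween-20. Eu-cryptate anti-Ig (1 nM) and APC anti-His (20 nM) were added; 665/620 nm ratio read after 30 min.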

T1 sequence (Q9NZQ7 with tags, fused parts or gaps): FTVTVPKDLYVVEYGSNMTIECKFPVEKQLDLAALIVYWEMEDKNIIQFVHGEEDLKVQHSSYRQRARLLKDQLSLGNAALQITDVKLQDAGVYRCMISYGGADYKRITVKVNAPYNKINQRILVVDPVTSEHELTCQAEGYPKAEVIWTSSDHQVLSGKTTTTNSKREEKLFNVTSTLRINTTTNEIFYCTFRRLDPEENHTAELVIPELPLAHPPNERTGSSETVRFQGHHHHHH

Row | IC50 [nM] | Structure (SMILES)
1 | 1000 to 10000 | CCCC[C@H]1C(=O)N2CCC[C@@H]2C(=O)N[C@@H](CC(=O)O)C(=O)N[C@@H](C(C)C)C(=O)N(C)[C@@H](C(C)CC)C(=O)N[C@@H](CCC(N)=O)C(=O)N2CCC[C@@H]2C(=O)N[C@@H](Cc2c[nH]c3ccccc23)C(=O)N[C@@H](Cc2ccc(O)cc2)C(=O)N[C@@H](CCCN)C(=O)N[C@H](C(=O)NCC(N)=O)CSCC(=O)N[C@@H](Cc2ccc(F)cc2)C(=O)N(C)[C@@H](Cc2ccccc2)C(=O)N1C (stereo partly drawn) [Example 9262] ({CH2CO}-[Phe(4-F)][NMeF][NMeNle][dP]DV[NMeIle(3ξ)]Q[dP]WY[Orn]CG-NH2; thioether N-13)
2 | 1000 to 10000 | CCCC[C@H]1C(=O)N2CCC[C@@H]2C(=O)N[C@@H](CC(=O)O)C(=O)N[C@@H](C(C)C)C(=O)N(C)[C@@H](C(C)CC)C(=O)N[C@@H](CCC(N)=O)C(=O)N2CCCC[C@@H]2C(=O)N[C@@H](Cc2c[nH]c3ccccc23)C(=O)N[C@@H](Cc2ccc(O)cc2)C(=O)N[C@@H](CCCN)C(=O)N[C@H](C(=O)NCC(N)=O)CSCC(=O)N[C@@H](Cc2ccc(F)cc2)C(=O)N(C)[C@@H](Cc2ccccc2)C(=O)N1C (stereo partly drawn) [Example 9263] ({CH2CO}-[Phe(4-F)][NMeF][NMeNle][dP]DV[NMeIle(3ξ)]Q[dPip]WY[Orn]CG-NH2; thioether N-13)
3 | 1 to 9.9 | COCC[C@H]1C(=O)N2C[C@@H](O)C[C@@H]2C(=O)N[C@@H](CC(=O)O)C(=O)N[C@@H](C(C)C)C(=O)N(C)[C@@H](Cc2ccccc2)C(=O)N[C@@H](Cc2ccc(O)cc2)C(=O)N2CCOC[C@@H]2C(=O)N[C@@H](Cc2c[nH]c3ccccc23)C(=O)N[C@@H](Cc2ccc(O)cc2)C(=O)N[C@@H](CC(C)C)C(=O)N[C@H](C(=O)NCC(N)=O)CSCC(=O)N[C@@H](Cc2cc(F)c(F)c(F)c2)C(=O)N(C)[C@@H](Cc2ccccc2)C(=O)N1C [Example 9264] ({CH2CO}-[Phe(3,4,5-F3)][NMeF][NMehSer](Me)[dHyp]DV[NMeF]Y[X1]WYLCG-NH2; thioether N-13)
4 | 1 to 9.9 | COCC[C@H]1C(=O)N2C[C@@H](O)C[C@@H]2C(=O)N[C@@H](CC(=O)O)C(=O)N[C@@H](C(C)C)C(=O)N(C)[C@@H](Cc2ccccc2)C(=O)N[C@@H](Cc2ccc(O)cc2)C(=O)N2CCOC[C@@H]2C(=O)N[C@@H](Cc2c[nH]c3ccccc23)C(=O)N[C@@H](Cc2ccc(O)cc2)C(=O)N[C@@H](CCCN)C(=O)N[C@H](C(=O)NCC(N)=O)CSCC(=O)N[C@@H](Cc2cc(F)c(F)c(F)c2)C(=O)N(C)[C@@H](Cc2ccccc2)C(=O)N1C [Example 9265] ({CH2CO}-[Phe(3,4,5-F3)][NMeF][NMehSer](Me)[dHyp]DV[NMeF]Y[X1]WY[Orn]CG-NH2; thioether N-13)
5 | 1 to 9.9 | COCC[C@H]1C(=O)N2C[C@@H](O)C[C@@H]2C(=O)N[C@@H](CC(=O)O)C(=O)N[C@@H](C(C)C)C(=O)N(C)[C@@H](Cc2ccccc2)C(=O)N[C@@H](CCC(N)=O)C(=O)N2CCOC[C@@H]2C(=O)N[C@@H](Cc2c[nH]c3ccccc23)C(=O)N[C@@H](Cc2ccc(O)cc2)C(=O)N[C@@H](CC(C)C)C(=O)N[C@H](C(=O)NCC(N)=O)CSCC(=O)N[C@@H](Cc2cc(F)c(F)c(F)c2)C(=O)N(C)[C@@H](Cc2ccccc2)C(=O)N1C [Example 9266] ({CH2CO}-[Phe(3,4,5-F3)][NMeF][NMehSer](Me)[dHyp]DV[NMeF]Q[X1]WYLCG-NH2; thioether N-13)
6 | 1 to 9.9 | COCC[C@H]1C(=O)N2C[C@@H](O)C[C@@H]2C(=O)N[C@@H](CC(=O)O)C(=O)N[C@@H](C(C)C)C(=O)N(C)[C@@H](Cc2ccccc2)C(=O)N[C@@H](CCC(N)=O)C(=O)N2CCOC[C@@H]2C(=O)N[C@@H](Cc2c[nH]c3ccccc23)C(=O)N[C@@H](Cc2ccc(O)cc2)C(=O)N[C@@H](CCCN)C(=O)N[C@H](C(=O)NCC(N)=O)CSCC(=O)N[C@@H](Cc2cc(F)c(F)c(F)c2)C(=O)N(C)[C@@H](Cc2ccccc2)C(=O)N1C [Example 9267] ({CH2CO}-[Phe(3,4,5-F3)][NMeF][NMehSer](Me)[dHyp]DV[NMeF]Q[X1]WY[Orn]CG-NH2; thioether N-13)
7 | 1 to 9.9 | COCC[C@H]1C(=O)N2C[C@@H](O)C[C@@H]2C(=O)N[C@@H](CC(=O)O)C(=O)N[C@@H](C(C)C)C(=O)N(C)[C@@H](Cc2ccccc2)C(=O)N[C@@H](CCC(=O)O)C(=O)N2CCOC[C@@H]2C(=O)N[C@@H](Cc2c[nH]c3ccccc23)C(=O)N[C@@H](Cc2ccc(O)cc2)C(=O)N[C@@H](CCCN)C(=O)N[C@H](C(=O)NCC(N)=O)CSCC(=O)N[C@@H](Cc2cc(F)c(F)c(F)c2)C(=O)N(C)[C@@H](Cc2ccccc2)C(=O)N1C [Example 9268] ({CH2CO}-[Phe(3,4,5-F3)][NMeF][NMehSer](Me)[dHyp]DV[NMeF]E[X1]WY[Orn]CG-NH2; thioether N-13)
8 | 1 to 9.9 | COCC[C@H]1C(=O)N2C[C@@H](O)C[C@@H]2C(=O)N[C@@H](CC(=O)O)C(=O)N[C@@H](C(C)C)C(=O)N(C)[C@@H](Cc2ccccc2)C(=O)N[C@@H](CC(=O)O)C(=O)N2CCOC[C@@H]2C(=O)N[C@@H](Cc2c[nH]c3ccccc23)C(=O)N[C@@H](Cc2ccc(O)cc2)C(=O)N[C@@H](CCCN)C(=O)N[C@H](C(=O)NCC(N)=O)CSCC(=O)N[C@@H](Cc2cc(F)c(F)c(F)c2)C(=O)N(C)[C@@H](Cc2ccccc2)C(=O)N1C [Example 9269] ({CH2CO}-[Phe(3,4,5-F3)][NMeF][NMehSer](Me)[dHyp]DV[NMeF]D[X1]WY[Orn]CG-NH2; thioether N-13)
9 | 1 to 9.9 | CCCC[C@H]1C(=O)N2C[C@@H](O)C[C@@H]2C(=O)N[C@@H](CC(=O)O)C(=O)N[C@@H](C(C)C)C(=O)N(C)[C@@H](Cc2ccccc2)C(=O)N[C@@H](CCC(=O)O)C(=O)N2CCOC[C@@H]2C(=O)N[C@@H](Cc2cn(CC(=O)O)c3ccccc23)C(=O)N[C@@H](Cc2ccc(O)cc2)C(=O)N[C@@H](CCCN)C(=O)N[C@H](C(=O)NCC(N)=O)CSCC(=O)N[C@@H](Cc2cc(F)c(F)c(F)c2)C(=O)N(C)[C@@H](Cc2ccccc2)C(=O)N1C [Example 9270] ({CH2CO}-[Phe(3,4,5-F3)][NMeF][NMeNle][dHyp]DV[NMeF]E[X1][Trp(1-CH2COOH)]Y[Orn]CG-NH2; thioether N-13)
10 | 1 to 9.9 | CCCC[C@H]1C(=O)N2C[C@@H](O)C[C@@H]2C(=O)N[C@@H](CC(=O)O)C(=O)N[C@@H](C(C)C)C(=O)N(C)[C@@H](Cc2ccccc2)C(=O)N[C@@H](CCC(=O)O)C(=O)N2CCOC[C@@H]2C(=O)N[C@@H](Cc2cn(CC(=O)O)c3ccccc23)C(=O)N[C@@H](Cc2ccc(O)cc2)C(=O)N[C@@H](CCN)C(=O)N[C@H](C(=O)CCC(N)=O)CSCC(=O)N[C@@H](Cc2cc(F)c(F)c(F)c2)C(=O)N(C)[C@@H](Cc2ccccc2)C(=O)N1C [Example 9271] (cyclo(DV[NMeF]E[X1][Trp(1-CH2COOH)]Y[Dab][X6][Phe(3,4,5-F3)][NMeF][NMeNle][dHyp]))
11 | 1 to 9.9 | CCCC[C@H]1C(=O)N2C[C@@H](O)C[C@@H]2C(=O)N[C@@H](CC(=O)O)C(=O)N[C@@H](C(C)C)C(=O)N(C)[C@@H](Cc2ccccc2)C(=O)N[C@@H](Cc2ccc(O)cc2)C(=O)N2C[C@@H](O)C[C@@H]2C(=O)N[C@@H](Cc2c[nH]c3ccccc23)C(=O)N[C@@H](Cc2ccc(O)cc2)C(=O)N[C@@H](CC(C)C)C(=O)N[C@H](C(=O)NCC(N)=O)CSCC(=O)N[C@@H](Cc2cc(F)c(F)c(F)c2)C(=O)N(C)[C@@H](Cc2ccccc2)C(=O)N1C [Example 9273] ({CH2CO}-[Phe(3,4,5-F3)][NMeF][NMeNle][dHyp]DV[NMeF]Y[dHyp]WYLCG-NH2; thioether N-13)
12 | 1 to 9.9 | CCCC[C@H]1C(=O)N2C[C@@H](O)C[C@@H]2C(=O)N[C@@H](CC(=O)O)C(=O)N[C@@H](C(C)C)C(=O)N(C)[C@@H](Cc2ccccc2)C(=O)N[C@@H](Cc2ccc(O)cc2)C(=O)N2C[C@@H](O)C[C@@H]2C(=O)N[C@@H](Cc2c[nH]c3ccccc23)C(=O)N[C@@H](Cc2ccc(O)cc2)C(=O)N[C@@H](CCCN)C(=O)N[C@H](C(=O)NCC(N)=O)CSCC(=O)N[C@@H](Cc2cc(F)c(F)c(F)c2)C(=O)N(C)[C@@H](Cc2ccccc2)C(=O)N1C [Example 9274] ({CH2CO}-[Phe(3,4,5-F3)][NMeF][NMeNle][dHyp]DV[NMeF]Y[dHyp]WY[Orn]CG-NH2; thioether N-13)
13 | 1 to 9.9 | CCCC[C@H]1C(=O)N2C[C@@H](O)C[C@@H]2C(=O)N[C@@H](CC(=O)O)C(=O)N[C@@H](C(C)C)C(=O)N(C)[C@@H](Cc2ccccc2)C(=O)N[C@@H](CCC(=O)O)C(=O)N2C[C@@H](O)C[C@@H]2C(=O)N[C@@H](Cc2c[nH]c3ccccc23)C(=O)N[C@@H](Cc2ccc(O)cc2)C(=O)N[C@@H](CC(C)C)C(=O)N[C@H](C(=O)NCC(N)=O)CSCC(=O)N[C@@H](Cc2cc(F)c(F)c(F)c2)C(=O)N(C)[C@@H](Cc2ccccc2)C(=O)N1C [Example 9275] ({CH2CO}-[Phe(3,4,5-F3)][NMeF][NMeNle][dHyp]DV[NMeF]E[dHyp]WYLCG-NH2; thioether N-13)
14 | 1 to 9.9 | CCCC[C@H]1C(=O)N2C[C@@H](O)C[C@@H]2C(=O)N[C@@H](CC(=O)O)C(=O)N[C@@H](C(C)C)C(=O)N(C)[C@@H](Cc2ccccc2)C(=O)N[C@@H](CCC(=O)O)C(=O)N2C[C@@H](O)C[C@@H]2C(=O)N[C@@H](Cc2c[nH]c3ccccc23)C(=O)N[C@@H](Cc2ccc(O)cc2)C(=O)N[C@@H](CCCN)C(=O)N[C@H](C(=O)NCC(N)=O)CSCC(=O)N[C@@H](Cc2cc(F)c(F)c(F)c2)C(=O)N(C)[C@@H](Cc2ccccc2)C(=O)N1C [Example 9276] ({CH2CO}-[Phe(3,4,5-F3)][NMeF][NMeNle][dHyp]DV[NMeF]E[dHyp]WY[Orn]CG-NH2; thioether N-13)
15 | 1 to 9.9 | CCCC[C@H]1C(=O)N2C[C@@H](O)C[C@@H]2C(=O)N[C@@H](CC(=O)O)C(=O)N[C@@H](C(C)C)C(=O)N(C)[C@@H](Cc2ccccc2)C(=O)N[C@@H](CCC(=O)O)C(=O)N2C[C@@H](O)C[C@@H]2C(=O)N[C@@H](Cc2c[nH]c3ccccc23)C(=O)N[C@@H](Cc2ccc(O)cc2)C(=O)N[C@@H](CC(C)C)C(=O)N[C@H](C(=O)NCC(N)=O)CSCC(=O)N[C@@H](Cc2ccc(F)c(F)c2)C(=O)N(C)[C@@H](Cc2ccccc2)C(=O)N1C [Example 9277] ({CH2CO}-[Phe(3,4-F2)][NMeF][NMeNle][dHyp]DV[NMeF]E[dHyp]WYLCG-NH2; thioether N-13)
